{"source": "patent US7423019B2", "about": "“Agent for inducing conversion of intestinal cells into insulin-producing cells and antidiabetic drug” (Ajinomoto Co., Inc., priority 2003, dated 2008)", "key": {"[1]": {"tested_on": "pancreas, stomach, liver, and duodenal cells", "experiment": "Primary culture of embryonal mouse pancreas, stomach, liver and duodenal cells, double stain with antibodies to insulin and glucagon", "type": "cell-based", "settings": "10 nmol/l, cultured 8 days", "method": "(§1) Cells originating from various kinds of tissues of a 17.5 day-old embryonal mouse were divided into a group added with GLP-1(1-37) (10 nmol/l) or GLP-1(7-37) (10 nmol/l) and a non-addition control group, and were then cultured. After the cells had been cultured for 8 days, a double stain was performed using antibodies to insulin and glucagon. Specifically, the process was performed as follows.\n(§2) Specimens of pancreas, liver, stomach, duodenum, and small intestine (including the jejunum, ileum, and colon) tissues were collected from a 17.5 day-old C57BL/6 embryonal mouse under a microscope. Then, those tissues were immersed in a Hanks solution (Hanks Balanced Solution, Gibco BRL, Co., Ltd., without containing Ca) containing 5 mM of CaCl2 (pH 7.4) and 0.1% of collagenase, and were then incubated at 37° C. for 10 to 20 minutes, followed by gently pipetting for digestion, respectively.\nThe obtained cells were washed with a culture medium and then inoculated in a 6-well plate for tissue culture at a cell density of 5×10^4 cells/cm^2. After 24 hours from the start of the culture, GLP-1(1-37) or GLP-1(7-37) was added to the culture. […]"}, "intestinal cells": {"tested_on": "intestinal cells", "experiment": "Primary culture of embryonal mouse intestinal cells, double stain with antibodies to insulin and glucagon", "type": "cell-based", "settings": "10 nmol/l, cultured 8 days; for generation of insulin-positive cells in intestinal cells: 17.5 day-old embryonal mouse cells", "method": "as §1, §2\nThe obtained cells were washed with a culture medium and then inoculated in a 6-well plate for tissue culture at a cell density of 5×10^4 cells/cm^2. After 24 hours from the start of the culture, GLP-1(1-37) or GLP-1(7-37) was added to the culture. Furthermore, after the cells had been continuously cultured for 8 days, the cells were washed three times with phosphate buffer (hereinafter, referred to as “PBS”) and then fixed by immersing in a 4% paraformaldehyde-phosphate buffer for 5 minutes and a 25% acetone/methanol solution for 1 minute. It should be noted that GLP-1(1-37) and GLP-1(7-37) were purchased from SIGMA.\nSubsequently, each well was washed with 0.05% Tween 20/PBS, followed by immersing in 0.2% Triton X100 for 1 hour. After that, anti-insulin goat antibody (Santa Cruz) and anti-glucagon mouse antibody (Sigma) were added to each well, and the whole was incubated at 4° C. for 16 hours, followed by washing the well. Then, Alexa 488-binding anti-goat IgG donkey antibody (Molecular Probes) or Cy3-binding anti-mouse IgG donkey antibody (Jackson Immuno Research Laboratories Inc.) was added to each well, and the whole was then incubated at 4° C. for 4 hours. […]"}, "jejunal cells": {"tested_on": "jejunal cells", "experiment": "Comparison between GLP-1 and other growth factors, RT-PCR in jejunal cells", "type": "cell-based, mouse", "settings": "GLP-1(1-37) 10 nm/l with activin A, beta cellulin, HGF, EGF; 8 days", "method": "In the presence or absence of GLP-1(1-37) (10 nm/l), jejunal cells were cultured by the same way as that of paragraph <1>, except that activin A, beta cellulin, hepatocyte growth factor (HGF), and epidermal growth factor (EGF), which had been reported to control the growth and differentiation of secretory cells in the pancreas, were added. Then, the expression amounts of various kinds of genes were analyzed (a culture period of 8 days)."}, "[2]": {"tested_on": "preproinsulin I and preproinsulin II mRNA", "experiment": "Insulin gene expression in organs of GLP-1(1-37)-administered STZ diabetes model rat (RT-PCR)", "type": "in vivo", "settings": "80 μg/head i.p. once a day for ten days, 42nd day", "method": "GLP-1(1-37) was confirmed to have the blood sugar decrease effect, so that the presence or absence of insulin production in the intestine of the GLP-1(1-37) administered group was determined by the method described below. GLP-1(1-37)(80 μg/head) or PBS was intraperitoneally administered to each of 6 Wistar male rats once a day over a ten-day […] period from day 2 to 12. On the 7th day of the administration (9-day old), 75 mg/kg of STZ was subcutaneously administered to induce diabetes. In order to prepare normal controls, some PBS-administered rats were administered citrate buffer instead of STZ. Subsequently, the rats were allowed to ingest feed and water freely. On the 42nd day, autopsy was performed to collect the pancreas, stomach, intestine, and lung. After RNA was prepared from each organ using ISOGEN (NIPPONGENE), mRNA of preproinsulin I and mRNA of preproinsulin II were quantified by the RT-PCR method. Oligonuculeotides shown in SEQ ID NOS: 24 and 25 were used for preproinsulin I, and oligonuculeotides shown in SEQ ID NOS: 26 and […] were used for preproinsulin II as PCR primers."}, "[3]": {"settings": "background art; cited from earlier work"}, "[4]": {"tested_on": "intestinal epithelium cells", "experiment": "In vivo GLP-1(1-37) administration to pregnant mouse, insulin/glucagon immunostain of newborn intestine sections", "settings": "10 nmol i.p. to pregnant mouse daily, embryonal day 10.5 to 17.5", "method": "GLP-1(1-37) (10 nmol) was intraperitoneally injected to a pregnant mouse at the same time every day over a seven-day embryonal period from day 10.5 to 17.5. After birth, tissue sections from the small and large intestine of a newborn mouse were double-stained using antibodies to insulin and glucagon. Specifically, the double stain was performed as follows.\nEach tissue of the small intestine (including jejunum and ileum) and the large intestine was immersed overnight in a 4% paraformaldehyde-phosphate buffer at 4° C., followed by embedding in O.C.T. compound to prepare section samples. The section samples were dried and fixed with acetone. Subsequently, the section samples were dried overnight at −20° C. and then washed with PBS-Tween 20, followed by immersing in 0.2% Triton X100 for 1 hour. After that, using anti-insulin goat antibody (Santa Cruz) or anti-glucagon mouse antibody (Sigma), and Alexa 488-binding anti-goat IgG donkey antibody or Cy3-binding anti-mouse IgG donkey antibody, the immunostain of insulin and glucagon was carried out, respectively."}, "jejunum": {"tested_on": "jejunum", "experiment": "Organ culture of embryonal mouse jejunum, insulin in the culture medium", "type": "cell-based", "settings": "50 nM GLP-1(1-37) with 50 nM PDGF, jejunum of 14.5-day embryonal mouse in collagen gel", "method": "(§3) The jejunum collected from a 14.5-day embryonal mouse was embedded in type I collagen gel (Nitta Gelatin Inc.) and was then grown in organ culture in the presence of 50 nM GLP-1(1-37) and 50 nM PDGF (Platelet Derived Growth Factor). The amount of insulin in the culture medium was determined using a mouse insulin-detecting kit (Shibayagi) according to the attached protocol."}, "[5]": {"tested_on": "cultured intestinal cells", "experiment": "RT-PCR gene expression in organ culture of jejunum, concentration-dependent effects", "type": "cell-based, mouse", "settings": "8 days", "method": "Using a quantitative PCR method, the effects of GLP-1(1-37) on the cultured intestinal cells were analyzed in detail as described below.\nFour concentrations of GLP-1(1-37), 0, 5, 10, and 50 nmol/l, were prepared and the organ culture of jejunum was performed by the same way as that of Example 3. After the jejunum had been cultured for 8 days, analyzed using the RT-PCR were the expression amounts of insulin genes (preproinsulin I and preproinsulin II), transcription factor group [neurogenin 3 (ngn3), neuroD/BETA 2, pax-4, Nkx 6.1, and hepatocyte nuclear factor 6 (HNF-6)] that controls the differentiation of secretory cells in the pancreas, a GLP-1 receptor (GLP-1 R), preproglucagon, pancreas duodenal homobox 1 (pdx-1), and hypoxanthine phosphoribosyl transferase (HPRT) as a positive control.\nThe RT-PCR was performed according to the method described in the literature (Hepatology, 32: 1230-1239) using primers. The primers used herein were as follows.\nGLP-1R (SEQ ID NOS: 3 and 4), preproinsulin 1 (SEQ ID NOS: 5 and 6), preproinsulin II (SEQ ID NOS: 7 and 8), preproglucagon (SEQ ID NOS: 9 and 10), pdx-1 (SEQ ID NOS: 11 and 12), ngn3 (SEQ ID NOS: 13 and 14), neuroD (SEQ ID NOS: 15 and 16), pax-4 (SEQ ID NOS: 17 and 18), Nkx 6.1 (SEQ ID NOS: 19 and 20), HNF-6 (SEQ ID NOS: 21 and 22), and HPRT (SEQ ID NOS: 23 and 24)."}, "diabetes model mouse": {"tested_on": "diabetes model mouse", "experiment": "Transplanting cultured jejunum into STZ diabetes model mouse, blood sugar level", "type": "in vivo", "method": "as §3\nThe jejunum at the second day from the start of the organ culture was transplanted in the abdominal cavity of a diabetes model mouse. The mouse was changed to a type I diabetes model by the administration of 200 mg/kg streptozotocin (hereinafter, referred to as “STZ”) three days before the transplantation, and the blood sugar level of the mouse was 300 to 350 mg/dl. Similarly, jejunal cells cultured in the absence of GLP-1 (1-37) were transplanted into a diabetes model mouse."}, "STZ diabetes model rat": {"tested_on": "STZ diabetes model rat", "experiment": "Blood sugar decrease effect on STZ diabetes model rat", "type": "in vivo", "method": "GLP-1 (1-37) (80 μg/head) or PBS was intraperitoneally administered to a Wistar male rat once a day over a ten-day period from day 2-12 after birth. On the 7th day of the administration (9-day old), 75 mg/kg of STZ was subcutaneously administered to induce diabetes. In order to prepare normal controls, some PBS-administered rats were administered citrate buffer instead of STZ. Subsequently, the rats were allowed to ingest feed and water freely. In the 42nd day, blood of each rat was drawn from the tail vein and the blood sugar level was measured. The measurement of the blood sugar level was performed using the whole blood sample by the glucose oxidase method in accordance with a general method."}, "GLP-1R": {"tested_on": "GLP-1R", "experiment": "Experiment of inhibiting GLP-1 function with exendin (9-39), RT-PCR in jejunal cells", "type": "cell-based, mouse", "settings": "8 days", "method": "Jejunal cells were cultured by the same way as that of paragraph <1>, except that 0, 10, 100, or 1,000 nmol/l of exendin (9-39), which was a GLP-1R antagonist, was simultaneously added together with GLP-1(1-37) (10 nmol/l). Then, the expression amounts of the insulin gene and other various kinds of genes were analyzed (a culture period of 8 days)."}, "[6]": {"settings": "STZ mouse transplanted with jejunal cells treated with GLP-1(1-37), baseline 300 to 350 mg/dl"}}, "note": "Entries after “also recorded” stand apart in the source; their conditions may differ."}
{"substance": "GLP-1(7-37) (HAEGTFTSDVSSYLEGQAAKEFIAWLVKGRG; Glucagon-like peptide 1; UniProt P01275 98-128, looked up, fragment) [reference compound]", "values": [{"measurement": "number of insulin-positive cells and glucagon-positive cells versus non-addition group", "setting": "[1]", "result": "no difference"}, {"measurement": "generation of insulin-positive cells in intestinal cells", "setting": "intestinal cells", "result": "can not effect on the induction"}]}
{"substance": "GLP-1(1-37): 37-amino acid peptide having the amino acid sequence from position 92 to position 128 of a preproglucagon peptide; purchased from SIGMA (HDEFERHAEGTFTSDVSSYLEGQAAKEFIAWLVKGRG; Glucagon-like peptide 1; UniProt P01275 92-128, looked up, fragment)", "values": [{"measurement": "expression of preproglucagon and pdx-1", "setting": "jejunal cells", "result": "no change"}, {"measurement": "expression of preproinsulin I, preproinsulin II, and ngn3", "setting": "jejunal cells", "result": "high expression"}, {"measurement": "expression of preproinsulin genes in the pancreas, stomach, and lung", "setting": "[2]", "result": "no expression was observed"}, {"measurement": "expressions of preproinsulin I gene and preproinsulin II gene in the intestine", "setting": "[2]", "result": "significantly increased"}, {"measurement": "activity as incretin", "setting": "[3]", "result": "weak activity"}, {"measurement": "insulin-positive intestinal epithelium cells in small and large intestine of newborn mouse", "setting": "[4]", "result": "many insulin-positive intestinal epithelium cells were observed"}, {"measurement": "number of insulin positive cells, small intestine compared with large intestine", "setting": "[4]", "result": "higher"}, {"measurement": "number of insulin-positive cells and glucagon-positive cells versus non-addition group", "setting": "[1]", "result": "no difference"}, {"measurement": "insulin secretion into the culture medium", "setting": "jejunum", "result": "insulin secretion was observed"}, {"measurement": "expression of GLP-1R, preproglucagon and pdx-1 versus non addition group", "setting": "[5]; 0, 5, 10, 50 nmol/l", "result": "no change in expression"}, {"measurement": "expression of transcription factor group controlling differentiation of secretory cells in the pancreas", "setting": "[5]; 0, 5, 10, 50 nmol/l", "result": "increase in expression"}, {"measurement": "expression of the insulin gene (preproinsulin I, preproinsulin II)", "setting": "[5]; 5 nmol/l, FIG. 1", "result": "expression of the insulin gene was observed"}, {"measurement": "change of blood sugar level after transplantation", "setting": "diabetes model mouse; STZ mouse (300 to 350 mg/dl) transplanted with jejunal cells treated with GLP-1(1-37)", "result": "decrease in blood sugar level was observed"}, {"measurement": "blood sugar level after eight weeks from the transplantation", "setting": "diabetes model mouse; [6]", "result": "75 to 100", "unit": "mg/dL"}, {"measurement": "blood sugar level after four weeks from the transplantation", "setting": "diabetes model mouse; [6]", "result": "125 to 225", "unit": "mg/dL"}, {"measurement": "glucagon staining of the insulin-positive cells", "setting": "intestinal cells", "result": "strongly glucagon-positive"}, {"measurement": "generation of insulin-positive cells in intestinal cells", "setting": "intestinal cells", "result": "insulin-positive cells were only observed; also recorded: effects on the induction"}, {"measurement": "blood sugar level compared to diabetes control group", "setting": "STZ diabetes model rat; 80 μg/head i.p. once a day for ten days, 42nd day", "result": "decreased significantly"}, {"measurement": "blood sugar level", "setting": "STZ diabetes model rat; 80 μg/head i.p. once a day, day 2-12 after birth, STZ 75 mg/kg s.c., measured 42nd day, n = 6", "result": "430 ± 89 ^##"}]}
{"substance": "exendin (9-39)", "values": [{"measurement": "expression of preproinsulin I, preproinsulin II, and ngn3", "setting": "GLP-1R; exendin (9-39) 10, 100 or 1,000 nmol/l added together with GLP-1(1-37) 10 nmol/l", "result": "hardly observed"}, {"measurement": "expression of preproglucagon and pdx-1", "setting": "GLP-1R; exendin (9-39) added together with GLP-1(1-37) 10 nmol/l", "result": "not influenced"}]}
